Where two headings read alike, the source gives them in different places.
Experiments:
DYRK1A = DYRK1A (Homo sapiens (Human), UniProt Q13627); assay: DYRK1A kinase assay (HotSpot, Reaction Biology); type: biochemical; settings: purified recombinant kinase, 10 μM ATP, room temperature 120 min
DYRK1B = DYRK1B (Homo sapiens (Human), UniProt Q9Y463); assay: DYRK1B kinase assay (HotSpot, Reaction Biology); type: biochemical
[1] = purified recombinant kinase, 10 μM ATP, room temperature 120 min

Chain of DYRK1B (Q9Y463 whole entry): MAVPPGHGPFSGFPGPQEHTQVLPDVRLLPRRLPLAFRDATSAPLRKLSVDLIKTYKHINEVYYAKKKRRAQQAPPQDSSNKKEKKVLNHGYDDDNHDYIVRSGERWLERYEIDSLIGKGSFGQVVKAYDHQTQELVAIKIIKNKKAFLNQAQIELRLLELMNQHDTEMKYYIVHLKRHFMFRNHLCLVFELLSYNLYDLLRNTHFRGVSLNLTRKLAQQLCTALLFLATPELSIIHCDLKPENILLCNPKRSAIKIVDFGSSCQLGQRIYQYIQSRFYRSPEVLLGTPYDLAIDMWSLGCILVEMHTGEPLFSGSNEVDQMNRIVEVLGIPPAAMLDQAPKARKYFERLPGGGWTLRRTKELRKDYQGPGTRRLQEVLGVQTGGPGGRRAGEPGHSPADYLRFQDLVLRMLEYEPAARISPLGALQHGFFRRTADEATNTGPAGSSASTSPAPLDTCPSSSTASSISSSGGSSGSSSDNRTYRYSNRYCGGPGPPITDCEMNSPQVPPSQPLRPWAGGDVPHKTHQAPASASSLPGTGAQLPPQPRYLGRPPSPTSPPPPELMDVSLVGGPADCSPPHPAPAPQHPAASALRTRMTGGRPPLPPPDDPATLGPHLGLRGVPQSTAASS

| SMILES | IC50 (DYRK1A) | IC50 (DYRK1B; [1]) | IC50 (DYRK1B) |
| --- | --- | --- | --- |
| CN(C)C(=N)c1nc2ccc3ncnc(Nc4ccc(F)c(Cl)c4)c3c2s1 [Compound 7, 9-(3-Chloro-4-fluorophenylamino)-N,N-dimethylthiazolo[5,4-f]quinazoline-2-carboximidamide] | 1000 to 10000 nM | – | – |
| CN(C)C(=N)c1nc2ccc3ncnc(Nc4ccc(Br)cc4F)c3c2s1 [Compound 14] | 147 nM | – | – |
| N=C(NCc1ccc(F)cc1)c1nc2ccc3ncnc(Nc4ccc(Br)cc4F)c3c2s1 [Compound 16, 9-(4-Bromo-2-fluorophenylamino)-N-(4-fluorobenzyl)thiazolo[5,4-f]quinazoline-2-carboximidamide] | 1000 to 10000 nM | – | – |
| N=C(NCCN1CCOCC1)c1nc2ccc3ncnc(Nc4ccc5c(c4)OCO5)c3c2s1 [Compound 29, 9-(Benzo[d][1,3]dioxol-5-ylamino)-N-(2-morpholinoethyl)thiazolo[5,4-f]quinazoline-2-carboximidamide] | 1000 to 10000 nM | – | – |
| N=C(NCCN1CCCCC1)c1nc2ccc3ncnc(Nc4ccc5c(c4)OCO5)c3c2s1 [Compound 30, 9-(Benzo[d][1,3]dioxol-5-ylamino)-N-(2-(piperidin-1-yl)ethyl)thiazolo[5,4-f]quinazoline-2-carboximidamide] | 1000 to 10000 nM | – | – |
| CCN(CC)CCNC(=N)c1nc2ccc3ncnc(Nc4ccc5c(c4)OCO5)c3c2s1 [Compound 34, 9-(Benzo[d][1,3]dioxol-5-ylamino)-N-(2-(diethylamino)ethyl)thiazolo[5,4-f]quinazoline-2-carboximidamide] | 1000 to 10000 nM | – | – |
| NC(=O)c1nc2ccc3ncnc(Nc4ccc(Br)cc4F)c3c2s1 [Compound 36, 9-(4-Bromo-2-fluorophenylamino)thiazolo[5,4-f]quinazoline-2-carboxamide] | 194 nM | – | – |
| COC(=N)c1nc2ccc3ncnc(Nc4ccc(Br)cc4F)c3c2s1 [Compound 44, Methyl 9-(4-bromo-2-fluorophenylamino)thiazolo[5,4-f]quinazoline-2-carbimidate] | 3.6 nM | – | 6.55 nM |
| COC(=N)c1nc2ccc3ncnc(Nc4ccc(OC)c(OC)c4)c3c2s1 [Compound 51, Methyl 9-(3,4-dimethoxyphenylamino)thiazolo[5,4-f]quinazoline-2-carbimidate] | – | 161 nM | – |
| COC(=N)c1nc2ccc3ncnc(Nc4ccc(Cl)c(Cl)c4)c3c2s1 [Compound 57, Methyl 9-(3,4-dichlorophenylamino)thiazolo[5,4-f]quinazoline-2-carbimidate] | 66.8 nM | – | – |
| C#Cc1cccc(Nc2ncnc3ccc4nc(C(=N)OC)sc4c23)c1 [Compound 58, Methyl 9-(3-ethynylphenylamino)thiazolo[5,4-f]quinazoline-2-carbimidate] | 40.8 nM | 46.3 nM | – |
| COC(=N)c1nc2ccc3ncnc(Nc4ccc(O)c([N+](=O)[O-])c4)c3c2s1 [Compound 60, Methyl 9-(4-hydroxy-3-nitrophenylamino)thiazolo[5,4-f]quinazoline-2-carbimidate] | 4.91 nM | 5.68 nM | – |
| COC(=N)c1nc2ccc3ncnc(Nc4ccc(C)cc4)c3c2s1 [Compound 65, Methyl 9-(p-tolylamino)thiazolo[5,4-f]quinazoline-2-carbimidate] | 0.98 nM | 2.83 nM | – |
| COC(=N)c1nc2ccc3ncnc(Nc4ccc(F)cc4Br)c3c2s1 [Compound 68, Methyl 9-(2-bromo-4-fluorophenylamino)thiazolo[5,4-f]quinazoline-2-carbimidate] | 0.16 nM | 0.24 nM | – |
| COC(=N)c1nc2ccc3ncnc(Nc4ccc(C#N)cc4)c3c2s1 [Compound 70, Methyl 9-(4-cyanophenylamino)thiazolo[5,4-f]quinazoline-2-carbimidate] | 3.89 nM | 7.69 nM | – |
| COC(=N)c1nc2ccc3ncnc(Nc4ccc(Cl)cc4Cl)c3c2s1 [Compound 72, Methyl 9-(2,4-dichlorophenylamino)thiazolo[5,4-f]quinazoline-2-carbimidate] | 0.22 nM | 0.28 nM | – |
| COC(=N)c1nc2ccc3ncnc(Nc4ccc(OC)c([N+](=O)[O-])c4)c3c2s1 [Compound 73, Methyl 9-(4-methoxy-3-nitrophenylamino)thiazolo[5,4-f]quinazoline-2-carbimidate] | 124 nM | – | – |
| COC(=N)c1nc2ccc3ncnc(Nc4ccc(C(C)(C)C)cc4)c3c2s1 [Compound 74, Methyl 9-(4-tert-butylphenylamino)thiazolo[5,4-f]quinazoline-2-carbimidate] | 39 nM | 93.8 nM | – |
| COC(=N)c1nc2ccc3ncnc(Nc4cccc(Cl)c4)c3c2s1 [Compound 75, Methyl 9-(3-chlorophenylamino)thiazolo[5,4-f]quinazoline-2-carbimidate] | 13.6 nM | 18.8 nM | – |
| COC(=N)c1nc2ccc3ncnc(Nc4ccc(N(C)C)cc4)c3c2s1 [Compound 76, Methyl 9-(4-(dimethylamino)phenylamino)thiazolo[5,4-f]quinazoline-2-carbimidate] | 35.6 nM | 64.3 nM | – |
| COC(=N)c1nc2ccc3ncnc(Nc4ccc(N5CCCC5)cc4)c3c2s1 [Compound 77, Methyl 9-(4-(pyrrolidin-1-yl)phenylamino)thiazolo[5,4-f]quinazoline-2-carbimidate] | 54.8 nM | 186 nM | – |
| COC(=N)c1nc2ccc3ncnc(Nc4ccc(F)cc4F)c3c2s1 [Compound 78, Methyl 9-(2,4-difluorophenylamino)thiazolo[5,4-f]quinazoline-2-carbimidate] | 0.94 nM | 1.07 nM | – |
| COC(=N)c1nc2ccc3ncnc(Nc4ccc(O)c(F)c4)c3c2s1 [Compound 79, Methyl 9-(3-fluoro-4-hydroxyphenylamino)thiazolo[5,4-f]quinazoline-2-carbimidate] | 8.63 nM | 11 nM | – |

The next lines start with results.

| IC50 (DYRK1A) | IC50 (DYRK1B; [1]) | SMILES | IC50 (DYRK1B) |
| --- | --- | --- | --- |
| 1000 to 10000 nM | – | N=C(NCc1ccncc1)c1nc2ccc3ncnc(Nc4ccc(Br)cc4F)c3c2s1 [Compound 19, 9-(4-Bromo-2-fluorophenylamino)-N-(pyridin-4-ylmethyl)thiazolo[5,4-f]quinazoline-2-carboximidamide] | – |
| 431 nM | – | CN(C)CCNC(=N)c1nc2ccc3ncnc(Nc4ccc5c(c4)OCO5)c3c2s1 [Compound 33, 9-(Benzo[d][1,3]dioxol-5-ylamino)-N-(2-(dimethylamino)ethyl)thiazolo[5,4-f]quinazoline-2-carboximidamide] | – |
| – | 18700 nM | COc1ccc(Nc2ncnc3ccc4nc(C5=NCCO5)sc4c23)cc1 [Compound 42, 2-(4,5-dihydrooxazol-2-yl)-N-(4-methoxyphenyl)thiazolo[5,4-f]quinazolin-9-amine] | – |
| 13.1 nM | 19.2 nM | COC(=N)c1nc2ccc3ncnc(Nc4ccc(OC)cc4)c3c2s1 [Compound 45, Methyl 9-(4-methoxyphenylamino)thiazolo[5,4-f]quinazoline-2-carbimidate] | – |
| 2.76 nM | 3.66 nM | COC(=N)c1nc2ccc3ncnc(Nc4cc(Br)c5c(c4)OCO5)c3c2s1 [Compound 47, Methyl 9-(7-bromobenzo[d][1,3]dioxol-5-ylamino)thiazolo[5,4-f]quinazoline-2-carbimidate] | – |
| – | 4.2 nM | COC(=N)c1nc2ccc3ncnc(Nc4ccc5c(c4)OCO5)c3c2s1 [Compound 48, Methyl 9-(benzo[d][1,3]dioxol-5-ylamino)thiazolo[5,4-f]quinazoline-2-carbimidate] | – |
| 8 nM | – | COC(=N)c1nc2ccc3ncnc(Nc4ccc5c(c4)OCCO5)c3c2s1 [Compound 49, Methyl 9-(2,3-dihydrobenzo[b][1,4]dioxin-6-ylamino)thiazolo[5,4-f]quinazoline-2-carbimidate] | – |
| 1.13 nM | 4.74 nM | COC(=N)c1nc2ccc3ncnc(Nc4ccc(Cl)cc4)c3c2s1 [Compound 56, Methyl 9-(4-chlorophenylamino)thiazolo[5,4-f]quinazoline-2-carbimidate] | – |
| 436 nM | 486 nM | COC(=N)c1nc2ccc3ncnc(Nc4cc(OC)c(OC)c(OC)c4)c3c2s1 [Compound 61, Methyl 9-(3,4,5-trimethoxyphenylamino)thiazolo[5,4-f]quinazoline-2-carbimidate] | – |
| 9.53 nM | 11.1 nM | COC(=N)c1nc2ccc3ncnc(Nc4ccc(OC)cc4OC)c3c2s1 [Compound 62, Methyl 9-(2,4-dimethoxyphenylamino)thiazolo[5,4-f]quinazoline-2-carbimidate] | – |
| 299 nM | – | COC(=N)c1nc2ccc3ncnc(Nc4cc(OC)cc(OC)c4)c3c2s1 [Compound 63, Methyl 9-(3,5-dimethoxyphenylamino)thiazolo[5,4-f]quinazoline-2-carbimidate] | – |
| 1.81 nM | 3.48 nM | COC(=N)c1nc2ccc3ncnc(Nc4ccccc4)c3c2s1 [Compound 64, Methyl 9-(phenylamino)thiazolo[5,4-f]quinazoline-2-carbimidate] | – |
| 6.06 nM | 9.64 nM | COC(=N)c1nc2ccc3ncnc(Nc4ccc(F)cc4)c3c2s1 [Compound 66, Methyl 9-(4-fluorophenylamino)thiazolo[5,4-f]quinazoline-2-carbimidate] | – |
| 42.7 nM | 72 nM | COC(=N)c1nc2ccc3ncnc(Nc4cccc(C#N)c4)c3c2s1 [Compound 67, Methyl 9-(3-cyanophenylamino)thiazolo[5,4-f]quinazoline-2-carbimidate] | – |

Source: patent publication US9446044B2, “DYRK1 inhibitors and uses thereof” (DIAXONHIT, priority 2011, dated 2016)
